Source: the NIST ThermoML archive (doi:10.1016/j.jct.2010.09.008)

Columns and labels:
[1] = 101.33 kPa, Liquid, Vibrating tube method
[2] = relative permittivity at zero frequency (dimensionless); details: 101.33 kPa, Liquid, AC method
[3] = xn = mol fraction of the nth substance listed; details: 101.3 kPa, Liquid, Vibrating tube method
[4] = relative permittivity at zero frequency (dimensionless); xn = mol fraction of the nth substance listed; details: 101.3 kPa, Liquid, AC Method

COCCOC [1,2-dimethoxyethane]
Details | mass density, 288.15 K [kg/m3] | mass density, 298.15 K [kg/m3] | mass density, 308.15 K [kg/m3] | relative permittivity at zero frequency, 288.15 K | relative permittivity at zero frequency, 298.15 K | relative permittivity at zero frequency, 308.15 K
[1] | 872.05 | 861.14 | 850.06 | – | – | –
[2] | – | – | – | 7.41 | 7.07 | 6.75

COCCOC [1,2-dimethoxyethane] + CCCCCCC
Details | mass density [kg/m3] | relative permittivity at zero frequency
[3], 288.15 K, x2 = 0.0495 | 857.82 | –
[3], 288.15 K, x2 = 0.0995 | 844.28 | –
[3], 288.15 K, x2 = 0.2045 | 818.14 | –
[3], 288.15 K, x2 = 0.2979 | 797.21 | –
[3], 288.15 K, x2 = 0.403 | 775.91 | –
[3], 288.15 K, x2 = 0.5042 | 757.33 | –
[3], 288.15 K, x2 = 0.5998 | 741.27 | –
[3], 288.15 K, x2 = 0.7021 | 725.61 | –
[3], 288.15 K, x2 = 0.8053 | 711.33 | –
[3], 288.15 K, x2 = 0.8998 | 699.44 | –
[3], 288.15 K, x2 = 0.9508 | 693.43 | –
[3], 298.15 K, x2 = 0.0503 | 846.65 | –
[3], 298.15 K, x2 = 0.0974 | 834.02 | –
[3], 298.15 K, x2 = 0.2008 | 808.4 | –
[3], 298.15 K, x2 = 0.2994 | 786.5 | –
[3], 298.15 K, x2 = 0.401 | 766.2 | –
[3], 298.15 K, x2 = 0.5026 | 747.97 | –
[3], 298.15 K, x2 = 0.5967 | 732.41 | –
[3], 298.15 K, x2 = 0.6994 | 716.96 | –
[3], 298.15 K, x2 = 0.8019 | 702.94 | –
[3], 298.15 K, x2 = 0.9009 | 690.67 | –
[3], 298.15 K, x2 = 0.9509 | 684.9 | –
[3], 308.15 K, x2 = 0.0496 | 836.12 | –
[3], 308.15 K, x2 = 0.0998 | 822.77 | –
[3], 308.15 K, x2 = 0.2009 | 798.1 | –
[3], 308.15 K, x2 = 0.3035 | 775.66 | –
[3], 308.15 K, x2 = 0.4011 | 756.35 | –
[3], 308.15 K, x2 = 0.5021 | 738.24 | –
[3], 308.15 K, x2 = 0.6 | 722.36 | –
[3], 308.15 K, x2 = 0.7018 | 707.33 | –
[3], 308.15 K, x2 = 0.8036 | 693.71 | –
[3], 308.15 K, x2 = 0.9014 | 681.82 | –
[3], 308.15 K, x2 = 0.9519 | 676.15 | –
[4], 288.15 K, x2 = 0.1012 | – | 6.32
[4], 288.15 K, x2 = 0.2002 | – | 5.43
[4], 288.15 K, x2 = 0.3003 | – | 4.69
[4], 288.15 K, x2 = 0.3997 | – | 4.07
[4], 288.15 K, x2 = 0.5024 | – | 3.52
[4], 288.15 K, x2 = 0.6016 | – | 3.07
[4], 288.15 K, x2 = 0.7002 | – | 2.72
[4], 288.15 K, x2 = 0.7979 | – | 2.42
[4], 288.15 K, x2 = 0.9022 | – | 2.15
[4], 288.15 K, x2 = 0.9511 | – | 2.04
[4], 298.15 K, x2 = 0.1013 | – | 6.04
[4], 298.15 K, x2 = 0.2013 | – | 5.2
[4], 298.15 K, x2 = 0.3011 | – | 4.5
[4], 298.15 K, x2 = 0.3992 | – | 3.92
[4], 298.15 K, x2 = 0.503 | – | 3.41
[4], 298.15 K, x2 = 0.6035 | – | 3
[4], 298.15 K, x2 = 0.7028 | – | 2.67
[4], 298.15 K, x2 = 0.7982 | – | 2.38
[4], 298.15 K, x2 = 0.902 | – | 2.13
[4], 298.15 K, x2 = 0.9497 | – | 2.03
[4], 308.15 K, x2 = 0.0493 | – | 6.26
[4], 308.15 K, x2 = 0.1001 | – | 5.79
[4], 308.15 K, x2 = 0.2005 | – | 4.99
[4], 308.15 K, x2 = 0.3016 | – | 4.34
[4], 308.15 K, x2 = 0.399 | – | 3.8
[4], 308.15 K, x2 = 0.5009 | – | 3.32
[4], 308.15 K, x2 = 0.603 | – | 2.93
[4], 308.15 K, x2 = 0.7028 | – | 2.6
[4], 308.15 K, x2 = 0.802 | – | 2.33
[4], 308.15 K, x2 = 0.8974 | – | 2.11
[4], 308.15 K, x2 = 0.9505 | – | 2.01

COCCOCCOCCOCCOC [2,5,8,11,14-pentaoxapentadecane]
Details | mass density, 288.15 K [kg/m3] | mass density, 298.15 K [kg/m3] | mass density, 308.15 K [kg/m3] | relative permittivity at zero frequency, 288.15 K | relative permittivity at zero frequency, 298.15 K | relative permittivity at zero frequency, 308.15 K
[1] | 1015.96 | 1006.68 | 997.27 | – | – | –
[2] | – | – | – | 8.04 | 7.78 | 7.55

COCCOCCOCCOCCOC [2,5,8,11,14-pentaoxapentadecane] + CCCCCCC
Details | mass density, [3] [kg/m3] | relative permittivity at zero frequency, [4]
288.15 K, x2 = 0.0498 | – | 7.74
288.15 K, x2 = 0.0505 | 1004.42 | –
288.15 K, x2 = 0.0975 | 993.3 | –
288.15 K, x2 = 0.0999 | – | 7.42
288.15 K, x2 = 0.1982 | 968.25 | –
288.15 K, x2 = 0.2001 | – | 6.79
288.15 K, x2 = 0.3 | 941.07 | 6.15
288.15 K, x2 = 0.3985 | – | 5.52
288.15 K, x2 = 0.4 | 912.66 | –
288.15 K, x2 = 0.5009 | 881.97 | –
288.15 K, x2 = 0.5076 | – | 4.82
288.15 K, x2 = 0.6017 | 848.59 | –
288.15 K, x2 = 0.6033 | – | 4.2
288.15 K, x2 = 0.6931 | 816.13 | –
288.15 K, x2 = 0.7044 | – | 3.58
288.15 K, x2 = 0.7998 | 775.06 | –
288.15 K, x2 = 0.8028 | – | 2.99
288.15 K, x2 = 0.8972 | 734.27 | –
288.15 K, x2 = 0.8985 | – | 2.45
288.15 K, x2 = 0.8994 | – | 2.45
288.15 K, x2 = 0.9466 | 712.33 | –
288.15 K, x2 = 0.9495 | – | 2.19
298.15 K, x2 = 0.0496 | – | 7.49
298.15 K, x2 = 0.0499 | 995.11 | –
298.15 K, x2 = 0.0996 | 983.28 | –
298.15 K, x2 = 0.1016 | – | 7.19
298.15 K, x2 = 0.1994 | – | 6.58
298.15 K, x2 = 0.1995 | 958.5 | –
298.15 K, x2 = 0.2961 | 932.8 | –
298.15 K, x2 = 0.299 | – | 5.97
298.15 K, x2 = 0.4031 | 902.6 | –
298.15 K, x2 = 0.406 | – | 5.31
298.15 K, x2 = 0.4975 | 873.81 | –
298.15 K, x2 = 0.5037 | – | 4.7
298.15 K, x2 = 0.6024 | – | 4.1
298.15 K, x2 = 0.6043 | 838.65 | –
298.15 K, x2 = 0.6975 | 805.52 | –
298.15 K, x2 = 0.7027 | – | 3.51
298.15 K, x2 = 0.8001 | – | 2.95
298.15 K, x2 = 0.8006 | 765.91 | –
298.15 K, x2 = 0.8982 | 725.23 | –
298.15 K, x2 = 0.9013 | – | 2.41
298.15 K, x2 = 0.948 | 703.4 | –
298.15 K, x2 = 0.9499 | – | 2.16
308.15 K, x2 = 0.0469 | 986.65 | –
308.15 K, x2 = 0.0503 | – | 7.25
308.15 K, x2 = 0.0979 | 974.59 | –
308.15 K, x2 = 0.1003 | – | 6.95
308.15 K, x2 = 0.1976 | 949.94 | –
308.15 K, x2 = 0.201 | – | 6.36
308.15 K, x2 = 0.2944 | 924.23 | –
308.15 K, x2 = 0.2949 | – | 5.82
308.15 K, x2 = 0.3006 | 922.61 | –
308.15 K, x2 = 0.3924 | – | 5.24
308.15 K, x2 = 0.404 | 893.13 | –
308.15 K, x2 = 0.4956 | 865.23 | –
308.15 K, x2 = 0.5048 | – | 4.58
308.15 K, x2 = 0.6018 | 830.49 | –
308.15 K, x2 = 0.6066 | – | 3.98
308.15 K, x2 = 0.6965 | 796.89 | –
308.15 K, x2 = 0.7117 | – | 3.38
308.15 K, x2 = 0.7981 | 758.07 | –
308.15 K, x2 = 0.7999 | – | 2.9
308.15 K, x2 = 0.8986 | 716.39 | –
308.15 K, x2 = 0.8988 | – | 2.38
308.15 K, x2 = 0.9479 | 694.69 | –
308.15 K, x2 = 0.9491 | – | 2.14

COCCOCCOCCOC [2,5,8,11-tetraoxadodecane]
Details | mass density, 288.15 K [kg/m3] | mass density, 298.15 K [kg/m3] | mass density, 308.15 K [kg/m3] | relative permittivity at zero frequency, 288.15 K | relative permittivity at zero frequency, 298.15 K | relative permittivity at zero frequency, 308.15 K
[1] | 990.08 | 980.58 | 971.07 | – | – | –
[2] | – | – | – | 7.89 | 7.63 | 7.38
